Test results published in US20210205336A1, “Storage-stable ready-to-use formulations of Tigecycline” (RK Pharma Solutions LLC, priority 2019, published 2021).
Where “and” joins values, the source holds several entries; their conditions need not be identical. Identical values can stand only once.

Assay: Storage stability (purity and impurity profile) of ready-to-use tigecycline formulations at refrigeration, 2-8° C.
Type: physicochemical
Set-up: Tricyclic Impurity / Max. Unk Imp. / Oxo Impurity / Epimer Impurity / Total Impurity: unit not given here
Experimental: As used herein, and unless otherwise specified, the term “storage-stable” refers to any tigecycline-containing composition or formulation having sufficient physical and chemical stability to allow storage at a convenient temperature, such as between about 0° C. and about 50° C., for a commercially reasonable period of time. The phrase “physical stability” refers to maintenance of colour or colourless state, dissolved oxygen level, head space oxygen level and particulate matter and the phrase “chemical stability” relates to formation of drug-related impurities in terms of total impurities, single maximum individual impurity, or maximum individual unknown impurity. For pharmaceutical products, stability is required for commercially relevant times after manufacturing, such as for about 6, 12, 18, 24, or 36 months, during which time a product is kept in its original packaging under specified storage conditions. Solution A and Solution B were then further nitrogen purged for another 30 minutes and closed tightly after nitrogen flushing and covered with black cover. Solution A and solution B were stored in refrigerator (2-8° C.) for 02 hours. 100 mg tigecycline was charged in solution B followed by the addition of solution B to solution A while the solution A was kept at ice bath (e.g., about 0° C.). Now, the total 100 ml solution in the infusion bag was nitrogen purged for another 15 minutes and sealed after nitrogen flushing and stored at refrigerator (2-8° C.). […] Calcium chloride 60 mg and sodium bisulfite 2.5 mg were dissolved in 3 ml 5% dextrose for injection. The volume was made up to 5 ml with 5% dextrose solution. The solution was then nitrogen purged until dissolved oxygen reached <0.1 mg/L. 50 mg tigecycline was transferred into an amber color vial and then the 5 ml of the above solution was poured in the vial under nitrogen. The headspace of the vial was flushed through with nitrogen and packed. The vials were stored at refrigeration condition. Calcium chloride 60 mg and sodium bisulfite 2.5 mg were dissolved in 3 ml 5% dextrose. pH was adjusted to 5.5-6.0 pH range using 0.1 M meglumine solution, as required. The volume was made up to 5 ml with 5% dextrose solution. The solution was then nitrogen purged until dissolved oxygen reached <0.1 mg/L. 50 mg tigecycline was transferred into an amber colour vial and then the 5 ml of the above solution was poured in the vial under nitrogen. The headspace of the vial was flushed through with nitrogen and packed. The vials were stored at refrigeration condition. Calcium chloride 60 mg and sodium bisulfite 2.5 mg were dissolved in 3 ml 5% dextrose. pH was adjusted to 4.5-5.0 pH range using 0.1 M meglumine solution, as required. The volume was made up to 5 ml with 5% dextrose solution. The solution was then nitrogen purged until dissolved oxygen reached <0.1 mg/L. 50 mg tigecycline was transferred into an amber colour vial and then the 5 ml of the above solution was poured in the vial under nitrogen. The headspace of the vial was flushed through with nitrogen and packed. The vials were stored at refrigeration condition. Calcium chloride 60 mg and sodium bisulfite 2.5 mg were dissolved in 3 ml 0.9% NaCl Solution. The volume was made up to 5 ml with 0.9% NaCl Solution. […]

[1] = API (tigecycline before formulation)

With CN(C)c1cc(NC(=O)CNC(C)(C)C)c(O)c2c1C[C@H]1C[C@H]3[C@H](N(C)C)C(=O)/C(=C(\N)O)C(=O)[C@@]3(O)C(=O)C1=C2O [API, (4S,4aS,5aR,12aS)-9-[2-(tert-butylamino)acetamido]4,7-bis(dimethylamino)-1,4,4a,5,5a,6,11,12a-octahydro-3,10,12,12a-tetrahydroxy-1,11dioxo-2-naphthacenecarboxamide] the “% Purity” value [1] was 99.22% and 99.2% and 99.18%, the “Epimer Impurity” value [1] was 0.5 and 0.48 and 0.49 and the “Max. Unk Imp.” value [1] was 0.05 and 0.04. The “Oxo Impurity” value [1] was 0.02, the “Tricyclic Impurity” value [1] was 0.03 and 0.04 and 0.05 and the Purity (API (tigecycline before formulation), Tables 4A-9A) was 99.3. For the same compound, the “Rel. Comp. B” value (API (tigecycline before formulation), in % (unit assumed)) was 0.01 and 0.02 and the “Total Impurity” value (API column, Day 1 (tigecycline before formulation)) was 0.82.
